SMILES strings stand for the structures. Values joined by “and” are separate entries in the source; they are usually repeats but may differ in a detail not shown here. Identical values can stand only once.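 Results reflect a 48-hour exposure of cells in 96-well plates to compound at five concentrations. GI50 marks 50% less growth. TGI marks complete inhibition of growth.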

Test systems include NCI/ADR-RES ovarian; UACC-257 melanoma; U251 CNS; PC-3 prostate; TK-10 renal; SNB-19 CNS; NCI-H460 lung; HT29 colon; SN12C renal; OVCAR-4 ovarian.
Experiment in all cases: DTP human tumour cell line panel, 48 h

Usually GI50 stands for the concentration that inhibits growth by half. The TGI is the concentration giving total growth inhibition. A low value points to more potent growth arrest. For `COC(=O)CCCCC(=O)c1c(C)[nH]c(/C=C2\N=C(c3ccc[nH]3)C=C2OC)c1C`, the GI50 in the test on NCI/ADR-RES ovarian was 0.504 µM; with UACC-257 melanoma it was 1730 nM; in the test with U251 CNS, 868 nM; in the test with PC-3 prostate, 470 nM; with TK-10 renal, 2060 nM; in the test with SNB-19 CNS, 1530 nM. The GI50 with NCI-H460 lung is 3030 nM; with HT29 colon, 198 nM; in the test with SN12C renal, 1100 nM; with OVCAR-4 ovarian, 1140 nM. Moreover, the TGI with NCI/ADR-RES ovarian came out at 1.91 µM; in the test on UACC-257 melanoma, 3.33 µM; in the test on U251 CNS, 2.15 µM; in the test on PC-3 prostate it was 1.88 µM; in the test with TK-10 renal, 6.38 µM; in the test with SNB-19 CNS, 3.16 µM. The total growth inhibition concentration (TGI) in the test on NCI-H460 lung came out at 10.1 µM; in the test on HT29 colon it was 1.41 µM; in the test with SN12C renal, 2.47 µM; in the test with OVCAR-4 ovarian, 2.47 µM.
In the case of `O=C(O)Cc1cccnc1`, the TGI with NCI/ADR-RES ovarian, with UACC-257 melanoma, in the test with U251 CNS, with PC-3 prostate, in the test with TK-10 renal and in the test with SNB-19 CNS was more than 100 µM throughout. Moreover, the total growth inhibition concentration (TGI) in the test on NCI-H460 lung, with HT29 colon, in the test with SN12C renal and with OVCAR-4 ovarian was more than 100 µM in each case.
As to `COC(=O)[C@H]1CCCN1C(=O)[C@H]1CCCN1C(=O)[C@@H](Cc1c[nH]c2ccccc12)NC(=S)Nc1cc(C(F)(F)F)cc(C(F)(F)F)c1`, the GI50 in the test with NCI/ADR-RES ovarian was 3.45 µM; with UACC-257 melanoma, 1850 nM; in the test with U251 CNS it was 1540 nM; in the test with PC-3 prostate, 1610 nM; with TK-10 renal it was 2210 nM; with SNB-19 CNS, 2140 nM. Moreover, the GI50 is 1960 nM with NCI-H460 lung, 1750 nM in the test on HT29 colon, 1690 nM with SN12C renal and 2860 nM with OVCAR-4 ovarian. In addition, the TGI with NCI/ADR-RES ovarian is 12.5 µM; in the test on UACC-257 melanoma it was 4.26 µM; in the test with U251 CNS, 2.9 µM; in the test on PC-3 prostate, 3.04 µM; in the test on TK-10 renal, 5.62 µM; in the test on SNB-19 CNS, 5.72 µM. The TGI in the test with NCI-H460 lung turned out to be 4.1 µM; in the test on HT29 colon, 3.65 µM; in the test on SN12C renal, 3.19 µM; in the test on OVCAR-4 ovarian it was 12.9 µM.
For the compound `CC(C)(Br)C(=O)C(Br)Br`, the TGI in the test on NCI/ADR-RES ovarian is 12.6 µM; in the test on UACC-257 melanoma, 22.4 µM and 9.43 µM; with U251 CNS, > 44.7 µM and 33.3 µM; in the test with PC-3 prostate, 11 µM; in the test on TK-10 renal, 23.5 µM and 9.15 µM; in the test on SNB-19 CNS it was 33.9 µM and 59.4 µM. The TGI is 34.4 µM and 11.4 µM in the test on NCI-H460 lung; 24 µM and 11.8 µM in the test on HT29 colon; > 43.1 µM and 11.2 µM with SN12C renal; 10.9 µM and 9.91 µM in the test with OVCAR-4 ovarian. Also, the GI50 with UACC-257 melanoma is 5210 nM; with U251 CNS, 9650 nM; in the test on TK-10 renal, 4950 nM; in the test with NCI-H460 lung it was 5750 nM; in the test on HT29 colon, 6160 nM; with SN12C renal, 6130 nM.
Regarding `COC1C(O)C(CO)OC(OC2C(O)COC(OC3C(C)OC(OC4C(O[C@H]5CC[C@@]6(C)C(CC=C7[C@H]6CCC68C(=O)O[C@@](C)(CCCC(C)C)[C@H]6[C@@H](OC(C)=O)C[C@@]78C)C5(C)C)OCC(OS(=O)(=O)O)C4O)C(OC4OCC(O)C(O)C4O)C3O)C2O)C1O` (stereo partly specified), the concentration for 50% growth inhibition (GI50) with NCI/ADR-RES ovarian was 0.207 µM; in the test with UACC-257 melanoma, 1510 nM; in the test with U251 CNS it was 120 nM; in the test on PC-3 prostate it was 159 nM; with TK-10 renal it was 333 nM; in the test on SNB-19 CNS it was 149 nM. In addition, the GI50 in the test with NCI-H460 lung is 315 nM; with HT29 colon it was 79.5 nM; in the test with SN12C renal, 110 nM; in the test on OVCAR-4 ovarian, 147 nM. Besides, the total growth inhibition concentration (TGI) worked out at 0.63 µM with NCI/ADR-RES ovarian; 3.54 µM in the test with UACC-257 melanoma; 0.272 µM in the test on U251 CNS; 1.87 µM with PC-3 prostate; 0.855 µM with TK-10 renal; 0.374 µM in the test on SNB-19 CNS. The TGI in the test with NCI-H460 lung came to 1.45 µM; in the test on HT29 colon it was 0.221 µM; with SN12C renal, 0.3 µM; in the test with OVCAR-4 ovarian, 0.433 µM.
In the case of `O=C(/C=C/c1cccc(O)c1)c1cccc(-n2cc(-c3ccccc3)[nH]c2=O)c1`, the GI50 is 3.94 µM with NCI/ADR-RES ovarian; 8890 nM with UACC-257 melanoma; 1560 nM in the test with U251 CNS; 2820 nM in the test with PC-3 prostate; 2430 nM with TK-10 renal; 6580 nM in the test with SNB-19 CNS. For the same compound, the GI50 in the test with NCI-H460 lung was 2840 nM; in the test on HT29 colon it was 2580 nM; in the test on SN12C renal, 3010 nM; in the test on OVCAR-4 ovarian, 4150 nM. Moreover, the TGI with NCI/ADR-RES ovarian stood at 15.3 µM; in the test with UACC-257 melanoma, 21.8 µM; with U251 CNS, 3.05 µM; in the test with PC-3 prostate it was 11.1 µM; with TK-10 renal it was 6.89 µM; in the test on SNB-19 CNS, 18.6 µM. The TGI with NCI-H460 lung was 7.4 µM; in the test on HT29 colon, more than 20.6 µM; in the test on SN12C renal, 11.3 µM; in the test with OVCAR-4 ovarian it was more than 37 µM.
As for `O=C(CCCCCCN1CC(=O)N2[C@@H](c3ccc(Cl)c(Cl)c3)c3[nH]c4ccccc4c3C[C@H]2C1=O)NO`, the GI50 is more than 33.3 µM in the test with NCI/ADR-RES ovarian; 3810 nM in the test with UACC-257 melanoma; 2780 nM in the test with U251 CNS; 2390 nM in the test on PC-3 prostate; 3510 nM in the test with TK-10 renal; 4540 nM with SNB-19 CNS. In addition, the GI50 in the test with NCI-H460 lung was 2770 nM; with HT29 colon, 2930 nM; with SN12C renal it was 4330 nM; in the test with OVCAR-4 ovarian, 4710 nM. The TGI with NCI/ADR-RES ovarian is more than 33.3 µM; in the test on UACC-257 melanoma, 18.2 µM; in the test on U251 CNS, 8.25 µM; with PC-3 prostate, 10.7 µM; with TK-10 renal, 10.2 µM; in the test with SNB-19 CNS, 12.5 µM. Besides, the TGI with NCI-H460 lung was determined as 9.15 µM; in the test on HT29 colon, 9 µM; in the test with SN12C renal, 14.5 µM; in the test with OVCAR-4 ovarian it was 23.8 µM.

For the origin of these results see PubChem BioAssay (NCI).
